Test results taken from ChEMBL document CHEMBL6121021, “Design and Synthesis of Topoisomerases-Histone Deacetylase Dual Targeted Quinoline-Bridged Hydroxamates as Anticancer Agents” (J Med Chem, 2025).
The source made the active and inactive calls. The rule behind the calls is not given here.

Assays:
MDA-MB-231 [1] = assay: Anti-cancer activity against human MDA-MB-231 cells assessed as decrease in PCNA level incubated for 48 hrs by immunoblot analysis; assay type: functional, cell-based; conditions: dose 1-10 µM
H9c2 = assay: Antiproliferative activity against rat H9c2 cells at 10 uM by JC-1 staining based analysis; assay type: toxicity, cell-based; conditions: h9c2, 10 µM
[2] = Metabolic stability in mouse hepatocytes assessed as hepatic clearance at 2 uM measured upto 120 min by LC-MS/MS analysis; assay type: ADME, cell-based, Hepatocyte
MDA-MB-231 [3] = assay: Anti-cancer activity against human MDA-MB-231 cells assessed as decrease in p53 level at 5 to 10 uM incubated for 48 hrs by immunoblot analysis; assay type: functional, cell-based; conditions: dose 5-10 µM
A549 [4] = assay: Antitumor activity against human A549 cells xenografted in athymic nude Crl:NU-Foxn1nu mouse assessed as decrease in tumor size at 15 to 30 mg/kg, po administered twice a week for 1 month; assay type: functional, organism-based; conditions: dose 15-30 mg/kg, time 1.0 months
Cytochrome P450 1A2 = Cytochrome P450 1A2 (Homo sapiens, UniProt P05177); assay: Inhibition of CYP1A2 in human liver microsomes preincubated for 10 mins followed by NADPH addition measured after 5 mins by LC-MS/MS analysis; assay type: ADME, Microsome
Chain of Cytochrome P450 1A2 (P05177 whole entry): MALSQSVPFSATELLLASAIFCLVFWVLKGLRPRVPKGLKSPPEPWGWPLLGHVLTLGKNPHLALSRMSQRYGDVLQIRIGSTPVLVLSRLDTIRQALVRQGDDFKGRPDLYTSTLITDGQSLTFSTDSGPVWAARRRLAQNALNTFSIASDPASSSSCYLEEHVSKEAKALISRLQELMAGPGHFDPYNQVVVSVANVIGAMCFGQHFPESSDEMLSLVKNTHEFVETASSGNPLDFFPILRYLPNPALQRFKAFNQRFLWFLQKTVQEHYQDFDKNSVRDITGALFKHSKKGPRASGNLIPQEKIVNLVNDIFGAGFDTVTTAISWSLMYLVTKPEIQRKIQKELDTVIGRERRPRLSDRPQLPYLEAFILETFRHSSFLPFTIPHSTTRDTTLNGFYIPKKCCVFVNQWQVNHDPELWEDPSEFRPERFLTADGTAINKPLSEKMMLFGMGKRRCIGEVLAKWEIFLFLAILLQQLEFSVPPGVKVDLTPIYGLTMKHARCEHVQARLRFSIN

Histone deacetylase 9 = Histone deacetylase 9 (Homo sapiens, UniProt Q9UKV0); assay: Inhibition of His-tagged recombinant human HDAC9 by fluorogenic assay
Chain of Histone deacetylase 9 (Q9UKV0 whole entry): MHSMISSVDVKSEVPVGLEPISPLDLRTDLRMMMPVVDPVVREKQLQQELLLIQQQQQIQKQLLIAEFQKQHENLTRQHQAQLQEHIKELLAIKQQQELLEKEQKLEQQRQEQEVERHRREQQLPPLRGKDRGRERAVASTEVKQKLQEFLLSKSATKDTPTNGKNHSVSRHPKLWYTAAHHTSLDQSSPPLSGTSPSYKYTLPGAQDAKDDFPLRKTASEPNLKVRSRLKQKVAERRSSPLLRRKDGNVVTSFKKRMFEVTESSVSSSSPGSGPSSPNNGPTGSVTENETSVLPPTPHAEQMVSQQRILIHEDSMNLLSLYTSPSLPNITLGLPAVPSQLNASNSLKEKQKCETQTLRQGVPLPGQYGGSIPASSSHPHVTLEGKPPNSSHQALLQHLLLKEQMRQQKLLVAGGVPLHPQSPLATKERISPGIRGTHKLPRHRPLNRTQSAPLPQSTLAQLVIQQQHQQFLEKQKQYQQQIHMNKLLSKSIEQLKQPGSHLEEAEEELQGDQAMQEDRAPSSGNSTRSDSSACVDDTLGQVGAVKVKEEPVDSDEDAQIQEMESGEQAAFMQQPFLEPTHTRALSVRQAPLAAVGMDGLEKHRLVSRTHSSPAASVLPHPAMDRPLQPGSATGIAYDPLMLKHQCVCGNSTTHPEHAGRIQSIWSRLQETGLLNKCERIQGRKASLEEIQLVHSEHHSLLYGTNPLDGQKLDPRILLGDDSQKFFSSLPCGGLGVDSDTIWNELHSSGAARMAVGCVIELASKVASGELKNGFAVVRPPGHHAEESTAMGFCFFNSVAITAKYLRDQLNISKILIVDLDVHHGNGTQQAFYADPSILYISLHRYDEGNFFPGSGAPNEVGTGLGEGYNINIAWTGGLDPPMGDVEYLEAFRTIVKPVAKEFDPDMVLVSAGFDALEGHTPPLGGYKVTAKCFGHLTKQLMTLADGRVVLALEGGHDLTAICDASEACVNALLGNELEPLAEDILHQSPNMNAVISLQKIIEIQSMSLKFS

A549 [5] = assay: Induction of cell cycle arrest in human A549 cells assessed as accumulation at G2/M phase at 500 nM by PI staining based flow cytometry; assay type: functional
A549 [6] = assay: Induction of apoptosis in human A549 cells at 500 nM by Annexin-V/PI staining based flow cytometry; assay type: functional, cell-based
A549 [7] = assay: Induction of mitophagy in human A549 cells at 500 nM by MitoTracker Green dye based analysis; assay type: functional, cell-based
A549 [8] = assay: Induction of cell cycle arrest in human A549 cells assessed as accumulation at G1 phase at 500 nM by PI staining based flow cytometry; assay type: functional
[9] = biological target: Histone deacetylase 3/Nuclear receptor corepressor 2 (HDAC3/NCoR2) (Homo sapiens, UniProt O15379); assay: Inhibition of His/GST-tagged recombinant human HDAC3/NcoR2 by fluorogenic assay; assay type: protein-complex assay
Histone deacetylase 4 = Histone deacetylase 4 (Homo sapiens, UniProt P56524); assay: Inhibition of His/GST-tagged recombinant human HDAC4 by fluorogenic assay
Chain of Histone deacetylase 4 (P56524 whole entry): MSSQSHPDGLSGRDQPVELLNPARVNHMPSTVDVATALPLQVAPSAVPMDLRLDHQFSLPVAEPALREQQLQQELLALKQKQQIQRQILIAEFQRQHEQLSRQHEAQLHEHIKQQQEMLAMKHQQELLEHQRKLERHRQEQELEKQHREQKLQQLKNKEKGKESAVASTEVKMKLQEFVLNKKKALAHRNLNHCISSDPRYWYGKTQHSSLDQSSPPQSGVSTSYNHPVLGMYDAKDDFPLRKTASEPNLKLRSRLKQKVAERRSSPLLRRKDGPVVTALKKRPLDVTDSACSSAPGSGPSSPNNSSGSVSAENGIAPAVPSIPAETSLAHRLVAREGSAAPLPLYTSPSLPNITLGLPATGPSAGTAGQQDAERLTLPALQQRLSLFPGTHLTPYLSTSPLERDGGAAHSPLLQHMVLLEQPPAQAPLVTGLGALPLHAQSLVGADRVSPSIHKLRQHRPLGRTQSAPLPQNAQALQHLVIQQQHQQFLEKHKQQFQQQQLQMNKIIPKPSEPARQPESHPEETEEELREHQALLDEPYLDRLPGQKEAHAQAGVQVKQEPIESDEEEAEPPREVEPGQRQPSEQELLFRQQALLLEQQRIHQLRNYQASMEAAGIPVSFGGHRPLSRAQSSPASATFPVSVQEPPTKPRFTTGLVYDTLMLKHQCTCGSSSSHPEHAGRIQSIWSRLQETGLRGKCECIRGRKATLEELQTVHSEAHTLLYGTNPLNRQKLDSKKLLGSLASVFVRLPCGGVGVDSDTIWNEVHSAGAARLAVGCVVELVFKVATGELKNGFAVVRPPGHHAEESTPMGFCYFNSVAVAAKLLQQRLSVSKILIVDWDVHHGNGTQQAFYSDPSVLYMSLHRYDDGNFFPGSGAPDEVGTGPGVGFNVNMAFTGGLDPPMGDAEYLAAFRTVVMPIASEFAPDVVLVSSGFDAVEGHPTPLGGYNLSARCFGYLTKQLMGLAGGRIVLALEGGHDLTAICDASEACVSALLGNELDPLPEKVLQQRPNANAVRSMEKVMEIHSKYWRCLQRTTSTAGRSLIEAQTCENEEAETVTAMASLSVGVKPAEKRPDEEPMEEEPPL

MDA-MB-231 [10] = assay: Anti-cancer activity against human MDA-MB-231 cells assessed as decrease in p21 level at 1 to 10 uM incubated for 48 hrs by immunoblot analysis; assay type: functional, cell-based; conditions: dose 1-10 µM
[11] = Metabolic stability in human hepatocytes assessed as hepatic clearance at 2 uM measured upto 120 min by LC-MS/MS analysis; assay type: ADME, cell-based, Hepatocyte
[12] = Antiproliferative activity against human PBMC cells at 10 uM incubated for 48 hrs by MTT assay; assay type: toxicity, cell-based
[13] = biological target: Polyamine deacetylase HDAC10 (Homo sapiens, UniProt Q969S8); assay: Inhibition of N-terminal FLAG-tagged recombinant human HDAC10 (2 to 631 residues) extracted from baculovirus infected Sf9 cells by fluorogenic assay
Chain of Polyamine deacetylase HDAC10 (Q969S8 whole entry, the tested form may be a part): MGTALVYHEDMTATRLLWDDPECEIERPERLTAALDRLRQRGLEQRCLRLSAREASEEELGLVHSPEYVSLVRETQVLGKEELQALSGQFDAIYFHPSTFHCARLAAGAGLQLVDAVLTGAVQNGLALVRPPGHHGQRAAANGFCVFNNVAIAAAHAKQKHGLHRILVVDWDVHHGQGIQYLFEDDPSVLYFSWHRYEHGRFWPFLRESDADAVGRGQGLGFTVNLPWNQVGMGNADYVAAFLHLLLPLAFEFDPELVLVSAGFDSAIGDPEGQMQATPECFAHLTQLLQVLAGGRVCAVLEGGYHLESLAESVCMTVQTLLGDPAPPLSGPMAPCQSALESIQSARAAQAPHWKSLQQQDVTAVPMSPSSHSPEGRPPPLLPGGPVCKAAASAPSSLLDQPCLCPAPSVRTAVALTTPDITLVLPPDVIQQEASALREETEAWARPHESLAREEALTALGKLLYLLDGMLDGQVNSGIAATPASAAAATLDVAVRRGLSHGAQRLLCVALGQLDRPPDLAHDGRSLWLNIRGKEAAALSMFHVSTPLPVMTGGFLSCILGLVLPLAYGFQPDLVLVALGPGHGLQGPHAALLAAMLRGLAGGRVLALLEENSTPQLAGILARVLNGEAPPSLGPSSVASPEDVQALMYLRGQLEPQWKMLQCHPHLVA

[14] = Drug metabolism in human hepatocytes assessed as demethylation M6 metabolite formation at 10 uM by LC-MS/MS analysis; assay type: ADME, cell-based, Hepatocyte
MDA-MB-231 [15] = assay: Anti-cancer activity against human MDA-MB-231 cells assessed as decrease in p53 level at 1 to 5 uM incubated for 48 hrs by immunoblot analysis; assay type: functional, cell-based; conditions: dose 1-5 µM
A549 [16] = assay: Induction of apoptosis in human A549 cells by Annexin-V/PI staining based flow cytometry; assay type: functional, cell-based
MDA-MB-231 [17] = assay: Anti-cancer activity against human MDA-MB-231 cells assessed as decrease in PCNA level at 10 uM incubated for 48 hrs by immunoblot analysis; assay type: functional, cell-based
MDA-MB-231 [18] = assay: Anti-cancer activity against human MDA-MB-231 cells assessed as decrease in CDK-4 level at 10 uM incubated for 48 hrs by immunoblot analysis; assay type: functional, cell-based

For `COc1ccc(-c2ccc3cc(OCCCCCC(=O)NO)ccc3n2)cc1`, the Activity (MDA-MB-231 [1]) was “Dose-dependent-effect”, the Activity (H9c2) was “Non-toxic” and the CLhep predicted at 2 µM [2] was 65.9 mL/min/kg. The Activity (MDA-MB-231 [3]) was “inactive”, the Activity (A549 [4]) was “Active” and the IC50 (Cytochrome P450 1A2) was 4420 nM. The IC50 (Histone deacetylase 9) was over 100 nM, the Activity (A549 [5]) was “Active” and the Activity (A549 [6]) was “Active”. For the same compound, the Activity (A549 [7]) was “Active”, the Activity (A549 [8]) was “Active” and the IC50 [9] was 88.3 nM. For the same compound, the IC50 (Histone deacetylase 4) was 99 nM, the Activity (MDA-MB-231 [10]) was “Active” and the CLhep predicted at 2 µM [11] was 14 mL/min/kg. The Activity [12] was “Non-toxic”, the IC50 [13] was 87.1 nM and the Drug metabolism [14] was “metabolite_detected”.
For `COc1ccc(-c2ccc3ccc(OCCCCCCC(=O)NO)cc3n2)cc1I`, the Activity (MDA-MB-231 [15]) was “Active”, the Activity (A549 [16]) was “Active” and the Activity (MDA-MB-231 [17]) was “Active”. For the same compound, the Activity (MDA-MB-231 [18]) was “Active”.
